1 substance from patent publication US5786332A, “Cytokine restraining agents and methods of use in pathologies and conditions associated with altered cytokine levels” (Trega Biosciences, Inc., priority 1995, dated 1998) can be followed below.

The subject of series [1] is Sprague-Dawley rats. In words: Cyclosporine-induced nephrotoxicity. It is filed as in vivo. From the text: B. Cyclosporine-Induced Nephrotoxicity: This experiment as performed to ascertain if EX-2 can mitigate the reduction in glomerular filtration rate (GFR) and renal blood flow, as well as the dysfunction in fluid and electrolyte homeostasis induced by immunosuppressive treatment with cyclosporine A.
In the first study, male Sprague-Dawley rats (n=43) with a weight range of 240-290 g at the initiation of the cyclosporine A (CsA) treatment were divided into 4 weight matched groups. The groups were as follows: (1) Control: no CsA, no EX-2, treatment only with CsA vehicle (PBS) PO and EX-2 vehicle (also PBS) IP; (2) CsA: treatment with CsA (50 mg/kg in PBS administered PO daily at 0830 hr for 9 days) and IP injections of PBS (Ex-2 vehicle); (3) CsA and 50 μg: CsA treatment identical to group 2 with the addition of EX-2 (50 μg/kg IP administered daily at 0800 and 1700 hr in EX-2 vehicle); and (4) CsA and 500 μg: CsA treatment identical to groups 2 and 3, and EX-2 treatment protocol similar to group 3 except that the dose of EX-2 was 500 μg/kg BW. After deep anesthesia was assured, the rats were cannulated in the trachea (PE 240) jugular vein, femoral artery, and bladder (PE 50 for the previous 3 cannulations).After cannulation, infusion of ^3 H-inulin was initiated 50 min prior to the measurement period to assess glomerular filtration rate, renal blood flow and plasma flow. Renal blood flow was determined by the inulin extraction technique. At the end of the study, the kidneys were removed for histological analysis.
In the second study, male Sprague-Dawley rats (n=31) with a weight range of 240-290 g at the time of initiation of the cyclosporine treatment were divided into 4 weight-matched groups. […] Renal hemodynamics were determined and extracellular fluid volumes were also assessed.
In the second study, where extracellular fluid volumes (ECF) were measured, there were no differences in ECF among control and treatment groups (27.6±1.9 in control, 27.5±1.7 in CsA and vehicle, 26.2±0.9 in CsA+200 μg/kg EX-2, and 25.7±1.4% in CsA+500 μg/kg EX-2). […]

Series [2] has as its system inducible nitric oxide synthase (INOS). In words: Inducible nitric oxide synthase induction in rat aorta smooth muscle cells (cGMP RIA). Type of series: cell-based. The note with it: RASMC; 0.1 or 1 μM EX-2 before LPS, IL-1β or TNF-α (not specified which). On the procedure: A. Inducible Nitric Oxide Synthase (INOS): Rat aorta smooth muscle cells (RASMC) were isolated from male rats (325-350 g) using the previously published procedures of Gelsterfer et al., Circ. Res. 62:749-756 (1988), which is incorporated herein by reference. Cells were positively identified as smooth muscle cells by indirect immunofluorescent staining for anti-α-actin, using a mouse anti-α-actin antibody and anti-mouse IgG FITC conjugate. Cells were grown in T-75 tissue culture flasks (Corning Delbelco's Glass, Inc.; Corning, N.Y.) in 50% F12 and 50% Delbelco's Modified Eagle Medium (DMEM) supplemented with 10% bovine serum, 0.2 g/l L-glutamine, penicillin (100 U/ml) and streptomycin (0.1 mg/ml).
Cells between passages 1-5 were pretreated with one of the following: vehicle, LPS (1 μg/ml), IL-1β (10 U/ml), or TNF-α (100 U/ml) for 6 hr. […] Accumulation of cGMP was determined following exposure to 0.3 mM 3-isobutyl-1-methyl xanthine (IBMX) in the presence or absence of 1 mM L-arginine. […] The HCl extract was analyzed for cGMP by RIA and the NaOH-solubilized cell remnants were used for protein determination.
Male Sprague-Dawley rats were anesthetized with 55 mg/kg pentobarbital IP. […] RASMC were incubated with plasma from control or EX-2-treated animals and the ability of plasma components to inhibit the induction of INOS by LPS or IL-1β was determined as above. […]

For the substance “Ac-Nle-Gln-His-(D)Phe-Arg-(D)Trp-Gly-NH2 [EX-2]”, the “Renal blood flow in CsA-treated rats” value in series [1] (EX-2 IP twice daily with CsA, both studies) is recorded as “improved blood flow to values not different from control”. The “GFR in CsA-treated rats” value in series [1] (compared to CsA and vehicle controls, both studies) is listed as “significantly increased GFR”. Moreover, the “Urinary protein excretion in CsA-treated rats” value in series [1] (compared to CsA-treated rats) is “did not increase urinary protein excretion”. Also, in series [2], the “% Reduction of induced increase in cGMP (pmol/100 mg/5 min), INOS” value is recorded as 60%.
